# Entries after “also recorded” stand apart in the source; their conditions may differ.
# Experiments:
# Akt1 = Akt1 (Homo sapiens, UniProt P31749); assay: Akt1 inhibition assay using GSK-3 as a substrate (immuno-blotting with anti-phospho-GSK-3α/β); assay type: biochemical
# Experimental: Here the top 4000 compounds out of 50000 docked compounds were selected using FlexX and Drugscore (BioSolvIT). The top 4000 docked structures were further evaluated and ranked according to Goldscore and Chemscore functions (CSCORE). A list of common 200 compounds was then selected among ranked top 700 compounds according to both scoring functions (FIG. 1B). […] The remaining 100 compounds were experimentally tested up to 30 μM against Akt1. The inhibitory activity was evaluated for the selected compounds by using Z'-LYTE™ kit assay provided by Invitrogen Corporation (19). […] Corning® 384-well low volume plates (20 μl) were used. The fluorescent-enzymatic assay has been performed following the protocol provided by Invitrogen Corporation, using a fluorescent plate reader (Victor2, Perkin-Elmer). […] C) Lineweaver-Burk Km and Km(app) evaluation for Akt1. Each measurement was performed in triplicate. […] The Ki and the Km(app) were calculated at fixed inhibitor concentrations, as reported in the text. All constant values were definitely evaluated by fitting the data to the Lineweaver-Burk plot; D) Akt1 inhibition assay using GSK-3 as a substrate. Comparison of compounds 1 and 2 (Table 1) with H89 at 10 μM. E) Dose response for compound 1. […]
# AKT = assay: pAKT473 and total AKT by western analysis in UACC 903 (PTEN-) cells; assay type: cell-based, human
# Experimental: (§1) FIG. 6 describes the effect of BI-69A11 on phosphorylation and total levels of AKT in UACC 903 (PTEN−) cells. (A) UACC903 and the modified clone 29-1 (PTEN+) cells were exposed to 10 micro.M BI-69A11 and 50 micro.M LY294002 (a PI3K inhibitor) and the levels of pAKT473 and total AKT determined by western analysis. […] (SF=Serum Free). (B) BI-69A11 inhibits PRAS40 phosphorylation. UACC903 melanoma cells or 29-1 cells (PTEN+) were subjected to treatment with IGF-1 (20 ng/mL) and the level of PRAS40 phosphorylation was assessed. […] The cells were collected, lysed and levels of pPRAS40 and total PRAS40 determined by western analysis. (C) AKT association with HSP90 is inhibited by BI-69A11. Human melanoma cells were treated with BI-69A11 (10.micro.M) or DMSO control for 4 h, followed by protein preparation and immunoprecipitation using antibodies to pan-AKT. MG132 treatment, when used, initiated 1 h prior to treatment and lasted up to the preparation of proteins (total of 5 h). The right panel depicts analysis of total lysates.
# The term “cell lines”, as used herein, unless otherwise indicated, refer to UACC 903 cells and 29-1 cells. The cells were cultured in DMEM, supplemented with 10% FBS and maintained at 37° C. in 5% CO2. Cells were plated to 75% confluency and grown overnight at 37° C. Plates were rinsed twice with a serum-free DMEM medium and the appropriate concentration of the compound was added to the plates. Cells were harvested at different timepoints by scraping (for western blotting) or trypsinization (for cell proliferation assay) where appropriate.
# Thus, we set to test the possibility that BI-69A11's ability to inhibit AKT activity may stem from inhibition of AKT protein expression (see data below). We thus assessed whether inhibition of AKT Ser473 phosphorylation coincides with its activity, namely the phosphorylation of known AKT substrates. […] Of note, AKT3, the primarily active isoform of AKT in melanoma cells, effectively phosphorylates PRAS40 (Madhunapantula et al., 2007). […]
# PRAS40 [1] = assay: PRAS40 phosphorylation by western analysis in UACC903 cells; assay type: cell-based, human; details: UACC903, 10.micro.M
# Experimental: as §1
# Thus, we set to test the possibility that BI-69A11's ability to inhibit AKT activity may stem from inhibition of AKT protein expression (see data below). We thus assessed whether inhibition of AKT Ser473 phosphorylation coincides with its activity, namely the phosphorylation of known AKT substrates. […]
# PRAS40 [2] = assay: IGF-1 induced PRAS40 phosphorylation by western analysis in 29-1 cells; assay type: cell-based, human; details: IGF-1 (20 ng/mL), 10.micro.M
# Experimental: as §1
# We next tested the effect of BI-69A11 in 29-1 cells which are derivative of UAC903 that were reconstituted with chromosome 10 carrying the wt PTEN. Thus, 29-1 cells no longer express a constitutively active form of AKT (Robertson et al., 1998). To activate AKT, 29-1 cells were treated with IGF-1 (FIG. 6B). […]
# [3] = mouse, in vivo
# Sequence of Akt1 (P31749 whole entry): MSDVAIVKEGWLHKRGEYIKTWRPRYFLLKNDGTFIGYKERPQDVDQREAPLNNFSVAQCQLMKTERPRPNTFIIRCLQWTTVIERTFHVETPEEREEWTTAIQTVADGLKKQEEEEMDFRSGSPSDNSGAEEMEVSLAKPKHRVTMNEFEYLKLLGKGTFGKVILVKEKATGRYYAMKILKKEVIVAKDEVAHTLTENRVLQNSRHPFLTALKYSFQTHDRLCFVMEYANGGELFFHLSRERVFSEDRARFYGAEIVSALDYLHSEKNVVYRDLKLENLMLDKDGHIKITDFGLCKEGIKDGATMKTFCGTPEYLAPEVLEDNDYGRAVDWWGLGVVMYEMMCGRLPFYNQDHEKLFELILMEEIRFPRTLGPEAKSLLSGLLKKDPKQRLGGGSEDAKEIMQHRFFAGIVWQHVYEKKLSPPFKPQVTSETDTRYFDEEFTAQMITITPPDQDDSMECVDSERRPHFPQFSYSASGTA
smiles,measurement,setting,value
"O=C(/C=C/c1nc2ccccc2[nH]1)c1c(O)nc2ccc(Cl)cc2c1-c1ccccc1 [Compound 2, (E)-3-(3-(1H-benzo[d]imidazol-2-yl)acryloyl)-6-chloro-4-phenylquinolin-2(1H)-one]",inhibition of GSK-3 phosphorylation,Akt1,low micromolar range
same,levels of pAKT473,"AKT; 10 micro.M, UACC903 and 29-1 cells, FIG. 6A",Reduced levels of pAKT473
same,levels of total AKT,"AKT; 903 cells, 10 micro.M, increasing time after treatment",reduced levels of total AKT
same,levels of pAKT Ser473 / AKT phosphorylation,"AKT; UACC 903 cells, listed as BI-69A11",dose-dependent decrease; also recorded: effectively blocked
same,phosphorylation of PRAS40,PRAS40 [1],markedly inhibited
same,phosphorylation of PRAS40,PRAS40 [2],effectively inhibited
same,"cytokines in the blood, treated vs. control",[3],induction of TNFalpha
same,toxicity by blood work,[3],lack of toxicity

# Source: US20120190707A1, “SELECTIVE INHIBITORS OF AKT AND METHODS OF USING SAME” (priority 2008, published 2012)
